Here are results for eleven molecules from ChEMBL document CHEMBL3593215, “Design, synthesis and antiproliferative activities of novel benzamides derivatives as HDAC inhibitors” (Eur J Med Chem, 2015).

Each structure is given as a SMILES string.

Data set [1] has as its target T1, Histone deacetylase 1 (Homo sapiens, UniProt Q13547). The experiment in a line: Inhibition of HDAC1 (unknown origin) preincubated for 5 mins followed by fluorogenic substrate addition measured after 30 mins by microplate reader analysis.
In the next data set the test system is HCT-116. The experiment in a line: Cytotoxicity against human HCT116 cells assessed as inhibition of cell proliferation after 72 hrs by MTT assay. Type of data set: functional, cell-based. Particulars: HCT-116, 72 h.
The test system of data set [2] is A549. The experiment in a line: Cytotoxicity against human A549 cells assessed as inhibition of cell proliferation after 72 hrs by MTT assay. Type of data set: functional, cell-based. Particulars: A549, 72 h.
The test system of a further data set is MCF7. Briefly: Cytotoxicity against human MCF7 cells assessed as inhibition of cell proliferation after 72 hrs by MTT assay. It counts as functional, cell-based. As to conditions: MCF7, 72 h. (In general: Formazan colour is commonly taken as a measure of viable cells.)
Data set [3] has as its target T1, Histone deacetylase 1. Briefly: Potency index, ratio of MS-275 IC50 to compound IC50 for HDAC1 (unknown origin).
The nature of data set [4]: AUCinfinity_obs in Sprague-Dawley rat at 25 mg/kg, po. It counts as ADME, organism-based. On the set-up: dose 25 mg/kg, time infinity, route oral. As to conditions: in vivo.
In data set [5] the test system is A549. The experiment in a line: Potency index, ratio of MS-275 IC50 to compound IC50 for human A549 cells. Type of data set: functional.
Data set [6] in a line: Elimination half life in Sprague-Dawley rat at 25 mg/kg, po. Particulars: in vivo, read-out: beta t1/2 (converted). It counts as ADME, organism-based.
Data set [7] is described as follows: AUClast in Sprague-Dawley rat at 25 mg/kg, po. It counts as ADME, organism-based. On the set-up: dose 25 mg/kg, route oral, time 0 - last. Particulars: in vivo.
A short description of data set [8]: Tmax in Sprague-Dawley rat at 25 mg/kg, po. Type of data set: ADME, organism-based. Particulars: in vivo.
Data set [9] can be described thus: Oral bioavailability in Sprague-Dawley rat at 25 mg/kg. Type of data set: ADME, organism-based. As to conditions: in vivo.
The nature of data set [10]: Elimination half life in Sprague-Dawley rat at 5 mg/kg, iv. Type of data set: ADME, organism-based. Particulars: in vivo, read-out: beta t1/2 (converted).

T1 sequence (Q13547 whole entry): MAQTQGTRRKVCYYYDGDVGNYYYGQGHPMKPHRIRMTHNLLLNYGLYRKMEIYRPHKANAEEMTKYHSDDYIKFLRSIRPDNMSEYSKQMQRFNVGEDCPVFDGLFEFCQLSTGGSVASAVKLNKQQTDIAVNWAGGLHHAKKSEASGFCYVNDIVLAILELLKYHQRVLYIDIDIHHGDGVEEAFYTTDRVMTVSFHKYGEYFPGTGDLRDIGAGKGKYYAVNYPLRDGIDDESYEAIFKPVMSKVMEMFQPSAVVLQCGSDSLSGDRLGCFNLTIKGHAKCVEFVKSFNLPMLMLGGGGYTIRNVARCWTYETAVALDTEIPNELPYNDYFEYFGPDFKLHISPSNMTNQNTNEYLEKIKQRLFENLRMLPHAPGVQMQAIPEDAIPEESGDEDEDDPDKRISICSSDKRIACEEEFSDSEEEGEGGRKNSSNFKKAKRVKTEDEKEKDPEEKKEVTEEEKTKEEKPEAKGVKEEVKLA

With `Nc1ccc(F)cc1NC(=O)c1ccc(CNC(=O)/C=C/c2cnc3cccnn23)cc1`, the IC50 is 137 nM at Histone deacetylase 1 [1], 4290 nM with HCT-116, 812 nM in the data set on A549 [2] and 11000 nM with MCF7.
Consider `Nc1cc(F)ccc1NC(=O)c1ccc(CNC(=O)/C=C/c2cnc3cccnn23)cc1`, for which the IC50 against Histone deacetylase 1 [1] is 131 nM; in the data set on HCT-116, 2260 nM; with A549 [2], 791 nM; in the data set with MCF7, 5510 nM.
Take `Nc1ccccc1NC(=O)c1ccc(CCNC(=O)/C=C/c2cnc3cccnn23)cc1`: the IC50 stood at 154 nM at Histone deacetylase 1 [1], 2300 nM with HCT-116, 1150 nM with A549 [2] and 4670 nM in the data set on MCF7.
Taken in the same sequence, the figures for `Nc1ccccc1NC(=O)c1ccc(CNC(=O)/C=C/c2cnc3ccccn23)cc1` were 129 nM, 2300 nM, 832 nM and 4130 nM.
For `Nc1ccccc1NC(=O)c1ccc(CNC(=O)OCc2cccnc2)cc1` [ENTINOSTAT], the IC50 with HCT-116 was 5100 nM; in the data set with A549 [2], 3130 nM; in the data set with MCF7 it was 7880 nM.
With `Nc1ccccc1NC(=O)c1ccc(CCNC(=O)/C=C/c2cnc3ccccn23)cc1`, the IC50 came out at 217 nM against Histone deacetylase 1 [1], 4500 nM with HCT-116, 1470 nM with A549 [2] and 9440 nM in the data set with MCF7.
In the case of `Nc1ccccc1NC(=O)c1ccc(CNC(=O)/C=C/c2c[nH]c3ccccc23)cc1`, the IC50 was 120 nM against Histone deacetylase 1 [1], 1220 nM in the data set on HCT-116, 649 nM with A549 [2] and 2920 nM in the data set on MCF7. Besides, at Histone deacetylase 1 [3], the Ratio IC50 worked out at 2.
`Nc1ccccc1NC(=O)c1ccc(CCNC(=O)/C=C/c2c[nH]c3ccccc23)cc1`: the IC50 on Histone deacetylase 1 [1] is 169 nM; in the data set with HCT-116, 1570 nM; in the data set on A549 [2] it was 1280 nM; in the data set with MCF7, 5020 nM.
In the case of `Nc1ccccc1NC(=O)c1ccc(CNC(=O)/C=C/c2cnc3cccnn23)cc1`, the IC50 against Histone deacetylase 1 [1] came out at 118 nM; in the data set with HCT-116, 1260 nM; in the data set with A549 [2], 723 nM; in the data set with MCF7 it was 2870 nM. This molecule displayed an AUC(0-inf) in [4] of 8610 ng·h/mL. The “Ratio IC50” value in the data set on A549 [5] was found to be 5; on Histone deacetylase 1 [3], 2. Also, the half-life is 8.22 h in data set [6] and 1.87 h in [10]. The AUC(0-t) in data set [7] turned out to be 6780 ng·h/mL. For the same molecule, the Tmax in data set [8] came out at 1.17 h. This molecule registered a bioavailability in data set [9] of 76%.
As to `Cc1nc2ccccn2c1/C=C/C(=O)NCCc1ccc(C(=O)Nc2ccccc2N)cc1`, the IC50 was determined as 178 nM on Histone deacetylase 1 [1], 1960 nM with HCT-116, 1460 nM in the data set on A549 [2] and 6800 nM in the data set on MCF7.
Taken in the same sequence, the figures for `Cc1nc2ccccn2c1/C=C/C(=O)NCc1ccc(C(=O)Nc2ccccc2N)cc1` were 173 nM, 1430 nM, 1300 nM and 6220 nM.

Broadly, the IC50 is the concentration at which inhibition is half-maximal. In general, AUC(0-inf) refers to the area under the concentration-time curve extrapolated to infinity. Low values mean less exposure, high ones more exposure. A word on the AUC(0-t): it is the area under the concentration-time curve up to a stated or last time point. For orientation: Tmax means the time from dosing to the highest level. The term bioavailability denotes dose-corrected exposure relative to a reference, in per cent.
